The subject of experiment [1] is Wnt/β-catenin transcription. Kind of experiment: Wnt-3A-stimulated TOPFlash reporter assay in HEK293 cells. Type of experiment: cell-based. To be noted: for IC50: Wnt-3A conditioned medium, 8 hour treatment, read-out: Inhibition Wnt/β-catenin transcription TopFlash IC50. The procedure: Stably transfected cells were seeded in 100 μl of cell growth medium/well in 96-well plates at 100% confluency. Fifty microliters of Wnt-3A conditioned medium containing the chemical compounds to be tested or DMSO was added to each well. After an 8 hour treatment, the cells were washed once with PBS and lysed with 55 μl of Passive Lysis Buffer supplied in the Dual-Luciferase Reporter Assay kit (Promega, Madison, Wis.). Twenty-five microliters of cell lysate was used for measuring luciferase activity in a 96-well plate reader (FluoStar Optima, BMG Labtech, Chicago, Ill.). Data were fit using GraphPad Prism (mean±SEM, n>=2).

In experiment [2] the target is T1, Frizzled1-GFP (Homo sapiens, UniProt Q9UP38).
T1 construct: expressed in transfected cells
Kind of experiment: Frizzled internalization assay (Fzd1-GFP). The experiment is classed as cell-based. Set-up: key: Punctate similar to control=0; trace amount of punctate greater than control=1; moderate=3; strong=5. The note with it: 6 hours, 0-5 point scale. The protocol:
The Fzd1-GFP assay was performed following a procedure similar to previously published work (Chen, M. Y.; Wang, J. B.; Lu, J. Y.; Bond, M. C.; Ren, X. R.; Lyerly, H. K.; Barak, L. S.; Chen, W. Biochemistry 2009, 48, 10267). Cells stably expressing Frizzled1-GFP plated in confocal dishes were treated, after 24 hours, with 12.5 μM of test compound or DMSO for 6 hours at 37° C. followed by fixation with 4% paraformaldehyde. The cells were then examined by microscopy using a LSM 510-Meta confocal microscope (Carl Zeiss, Thornwood, N.Y., USA) equipped with 40× and 100× apo chromat objectives. YFP was excited using a 488-nm argon laser line. Images were processed using the LSM software Image Browser (CarlZeiss, Thornwood, N.Y., USA). Plates were read twice in blinded fashion using a 0-5 point scale. ^aPunctate similar to control=0, trace amount of punctate greater than control=1, moderate=3, strong=5.

Where two headings read alike, the source gives them in different places. Some results are limits rather than exact numbers.

T1 sequence (Q9UP38 70-647): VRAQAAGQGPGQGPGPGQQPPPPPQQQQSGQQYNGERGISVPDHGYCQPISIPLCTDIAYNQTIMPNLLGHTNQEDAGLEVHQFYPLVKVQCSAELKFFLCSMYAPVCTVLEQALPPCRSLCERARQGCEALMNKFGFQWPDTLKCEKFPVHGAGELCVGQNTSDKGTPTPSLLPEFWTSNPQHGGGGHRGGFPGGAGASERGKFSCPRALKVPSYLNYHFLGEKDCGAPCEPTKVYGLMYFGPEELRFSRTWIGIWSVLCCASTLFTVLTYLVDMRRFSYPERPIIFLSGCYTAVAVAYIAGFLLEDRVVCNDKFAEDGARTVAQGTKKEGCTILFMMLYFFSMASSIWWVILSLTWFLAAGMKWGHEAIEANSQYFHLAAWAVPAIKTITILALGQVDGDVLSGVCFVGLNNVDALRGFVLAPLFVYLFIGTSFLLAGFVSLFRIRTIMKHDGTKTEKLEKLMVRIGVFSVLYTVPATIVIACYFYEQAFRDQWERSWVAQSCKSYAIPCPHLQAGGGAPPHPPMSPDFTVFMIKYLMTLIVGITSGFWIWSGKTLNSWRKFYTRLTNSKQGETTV

Turning to `O=C(NC(=O)c1cc(Cl)ccc1O)c1ccc(C(F)(F)F)cc1` [Compound 57, 5-Chloro-2-hydroxy-N-(4-(trifluoromethyl)benzoyl)benzamide], the IC50 in experiment [1] (Homo sapiens, HEK293, 8 h) is greater than 12 µM. Moreover, the “Fzd1-GFP internalization @12.5 μM” value in experiment [2] came to 0.

Turning to `O=C(Nc1ccc(F)cc1Cl)c1cc(Cl)ccc1O` [Compound 22, 5-chloro-N-(2-chloro-4-fluorophenyl)-2-hydroxybenzamide], the IC50 in experiment [1] (Homo sapiens, HEK293, 8 h) was determined as 1.41 ± 0.21 µM. Besides, the “Fzd1-GFP internalization @12.5 μM” value in experiment [2] stood at 3.

Turning to `O=C(Nc1ccc(Cl)c(Cl)c1)c1cc(Cl)ccc1O` [Compound 17, 5-chloro-N-(3,4-dichlorophenyl)-2-hydroxybenzamide], the IC50 in experiment [1] (Homo sapiens, HEK293) was 0.73 ± 0.13 µM. The “Fzd1-GFP internalization @12.5 μM” value in experiment [2] came to 5.

In the case of `CS(=O)(=O)c1ccc(NC(=O)c2cc(Cl)ccc2O)c(Cl)c1` [Compound 5, 5-chloro-N-(2-chloro-4-(methylsulfonyl)phenyl)-2-hydroxybenzamide], the IC50 in experiment [1] (Homo sapiens, HEK293, 8 h) is 7.66 µM. The “Fzd1-GFP internalization @12.5 μM” value in experiment [2] is 0.

Take `O=C(Nc1ccc([N+](=O)[O-])cc1)c1cc(Cl)ccc1O` [Compound 2, 5-chloro-2-hydroxy-N-(4-nitrophenyl)benzamide]: the IC50 in experiment [1] turned out to be 0.99 ± 0.32 µM. Moreover, the “Fzd1-GFP internalization @12.5 μM” value in experiment [2] was 5.

`O=C(Nc1ccc(C(F)(F)F)cc1F)c1cc(Cl)ccc1O` [Compound 10, 5-chloro-N-(2-fluoro-4-(trifluoromethyl)phenyl)-2-hydroxybenzamide]: in experiment [1] (Homo sapiens, HEK293, 8 h), the IC50 was found to be 0.55 ± 0.11 µM. In experiment [2], the “Fzd1-GFP internalization @12.5 μM” value amounted to 5.

On to `O=C(Nc1ccc(F)cc1)c1cc(Cl)ccc1O` [Compound 19, 5-chloro-N-(4-fluorophenyl)-2-hydroxybenzamide], for which, in experiment [1] (Homo sapiens, HEK293, 8 h), the IC50 came to 3.84 ± 0.29 µM. Further, in experiment [2], the “Fzd1-GFP internalization @12.5 μM” value is 0.

`O=C(NCc1ccc(C(F)(F)F)cc1)c1cc(Cl)ccc1O` [Compound 25, 5-chloro-2-hydroxy-N-(4-(trifluoromethyl)benzyl)benzamide]: the IC50 in experiment [1] (Homo sapiens, HEK293, 8 h) is 15.1 ± 1.4 µM. In addition, the “Fzd1-GFP internalization @12.5 μM” value in experiment [2] was 0.

In the case of `O=C(Nc1ccc(F)c(Cl)c1)c1cc(Cl)ccc1O` [Compound 23, 5-chloro-N-(3-chloro-4-fluorophenyl)-2-hydroxybenzamide], in experiment [1] (Homo sapiens, HEK293, 8 h), the IC50 is 1.21 ± 0.17 µM. Besides, the “Fzd1-GFP internalization @12.5 μM” value in experiment [2] was 5.

For `CC(=O)Oc1ccc(Cl)cc1C(=O)Nc1ccc(C(F)(F)F)cc1Cl` [Compound 59, 4-Chloro-2-((2-chloro-4-(trifluoromethyl)phenyl)carbamoyl)phenyl acetate], the IC50 in experiment [1] (Homo sapiens, HEK293) was 0.32 ± 0.03 µM. Further, the “Fzd1-GFP internalization @12.5 μM” value in experiment [2] is listed as 5.

For `O=C(Nc1cc(Cl)ccc1Cl)c1cc(Cl)ccc1O` [Compound 15, 5-chloro-N-(2,5-dichlorophenyl)-2-hydroxybenzamide], the IC50 in experiment [1] (Homo sapiens, HEK293, 8 h) was 0.75 ± 0.13 µM. Besides, the “Fzd1-GFP internalization @12.5 μM” value in experiment [2] was found to be 5.

Take `O=C(Nc1cc(Cl)cc(Cl)c1)c1cc(Cl)ccc1O` [Compound 16, 5-chloro-N-(3,5-dichlorophenyl)-2-hydroxybenzamide]: in experiment [1] (Homo sapiens, HEK293, 8 h), the IC50 was 0.7 ± 0.13 µM. Besides, in experiment [2], the “Fzd1-GFP internalization @12.5 μM” value was found to be 5.

On to `O=C(Nc1ccc(Cl)cc1)c1cc(Cl)ccc1O` [Compound 11, 5-chloro-N-(4-chlorophenyl)-2-hydroxybenzamide], for which the IC50 in experiment [1] (Homo sapiens, HEK293, 8 h) stood at 1.3 ± 0.18 µM. Moreover, the “Fzd1-GFP internalization @12.5 μM” value in experiment [2] was determined as 0.

For the molecule `NC(=O)c1ccc(NC(=O)c2cc(Cl)ccc2O)cc1` [Compound 4, N-(4-carbamoylphenyl)-5-chloro-2-hydroxybenzamide], in experiment [1] (Homo sapiens, HEK293, 8 h), the IC50 was greater than 12 µM. The “Fzd1-GFP internalization @12.5 μM” value in experiment [2] came to 0.

Regarding `O=C(Nc1cccc(Cl)c1)c1cc(Cl)ccc1O` [Compound 12, 5-chloro-N-(3-chlorophenyl)-2-hydroxybenzamide], the IC50 in experiment [1] (Homo sapiens, HEK293, 8 h) was 1.65 ± 0.12 µM. Besides, the “Fzd1-GFP internalization @12.5 μM” value in experiment [2] amounted to 5.

For the molecule `O=C(Nc1cccc(C(F)(F)F)c1)c1cc(Cl)ccc1O` [Compound 9, 5-chloro-2-hydroxy-N-(3-(trifluoromethyl)phenyl)benzamide], the IC50 in experiment [1] (Homo sapiens, HEK293, 8 h) came to 0.89 ± 0.32 µM. In addition, the “Fzd1-GFP internalization @12.5 μM” value in experiment [2] stood at 5.

On to `O=C(Nc1ccc(F)cc1F)c1cc(Cl)ccc1O` [Compound 20, 5-chloro-N-(2,4-difluorophenyl)-2-hydroxybenzamide], for which the IC50 in experiment [1] (Homo sapiens, HEK293, 8 h) came to 4.02 ± 0.79 µM. Also, the “Fzd1-GFP internalization @12.5 μM” value in experiment [2] is given as 2.

`CC(=O)c1ccc(NC(=O)c2cc(Cl)ccc2O)cc1` [Compound 3, N-(4-acetylphenyl)-5-chloro-2-hydroxybenzamide]: in experiment [1] (Homo sapiens, HEK293, 8 h), the IC50 was determined as 6.42 ± 0.51 µM. In addition, the “Fzd1-GFP internalization @12.5 μM” value in experiment [2] came out at 0.

Molecule `O=C(Nc1ccc([N+](=O)[O-])c(N2CCOCC2)c1)c1cc(Cl)ccc1O` [Compound 34, 5-chloro-2-hydroxy-N-(3-morpholino-4-nitrophenyl)benzamide] had an inhibition at 10 µM in experiment [1] (Homo sapiens, HEK293, 8 h) of 40%.

As to `CCCC(CCC)C(=O)Oc1ccc(Cl)cc1C(=O)Nc1ccc([N+](=O)[O-])cc1Cl` [Compound 66, 4-chloro-2-((2-chloro-4-nitrophenyl)carbamoyl)phenyl 2-propylpentanoate], the “Inhibition Wnt/β-catenin transcription TopFlash, % inhibition @ 0.5 μM” value in experiment [1] stood at 30% inhibition.

Regarding `C=CCOc1cc([N+](=O)[O-])ccc1NC(=O)c1cc(Cl)ccc1OC(C)=O` [Compound 60, 2-((2-(allyloxy)-4-nitrophenyl)carbamoyl)-4-chlorophenyl acetate], the inhibition at 2 µM in experiment [1] (Homo sapiens, HEK293, 8 h) was found to be 80%.

`C#CCOc1cc([N+](=O)[O-])ccc1NC(=O)c1cc(Cl)ccc1O` [Compound 33, 5-chloro-2-hydroxy-N-(4-nitro-2-(prop-2-yn-1-yloxy)phenyl)benzamide] came in with an inhibition at 2 µM in experiment [1] (Homo sapiens, HEK293, 8 h) of 45%.

For `O=C(Nc1c(F)cccc1F)c1cc(Cl)ccc1O` [Compound 21, 5-chloro-N-(2,6-difluorophenyl)-2-hydroxybenzamide], the IC50 in experiment [1] (Homo sapiens, HEK293, 8 h) is greater than 12 µM.

The molecule `C=CCOc1cc([N+](=O)[O-])ccc1NC(=O)c1cc(Cl)ccc1O` [Compound 30, N-(2-(allyloxy)-4-nitrophenyl)-5-chloro-2-hydroxybenzamide] gave an inhibition at 10 µM in experiment [1] (Homo sapiens, HEK293, 8 h) of 98%.

`Cc1ccc(S(=O)(=O)Nc2ccc(Br)cc2C(=O)Nc2ccc(C(F)(F)F)cc2)cc1` [Compound 48, 5-bromo-2-((4-methylphenyl)sulfonamido)-N-(4-(trifluoromethyl)phenyl)benzamide] came in with an inhibition at 10 µM in experiment [1] (Homo sapiens, HEK293, 8 h) of 93%.

As to `O=C(CCCCCNC(=O)CCCCC1SCC2NC(=O)NC21)NCCCCCC(=O)NCCOCCOCCOc1cc([N+](=O)[O-])ccc1NC(=O)c1cc(Cl)ccc1O` (stereo not shown) [Compound 29, 5-chloro-2-hydroxy-N-(4-nitro-2-((10,17,24-trioxo-28-(2-oxohexahydro-1H-thieno[3,4-d]imidazol-4-yl)-3,6-dioxa-9,16,23-triazaoctacosyl)oxy)phenyl)benzamide], in experiment [1] (Homo sapiens, HEK293, 8 h), the IC50 is greater than 12 µM.

Regarding `COc1cc(O)c(C(=O)Nc2ccc([N+](=O)[O-])cc2Cl)cc1OC` [Compound 46, N-(2-chloro-4-nitrophenyl)-2-hydroxy-4,5-dimethoxybenzamide], the “Inhibition Wnt/β-catenin transcription TopFlash, result in words” value in experiment [1] (up to 12 μM) is “No inhibit. up”.

Regarding `CC(C)C(=O)Oc1ccc(Cl)cc1C(=O)Nc1ccc([N+](=O)[O-])cc1Cl` [Compound 64, 4-chloro-2-((2-chloro-4-nitrophenyl)carbamoyl)phenyl isobutyrate], the “Inhibition Wnt/β-catenin transcription TopFlash, % inhibition @ 0.5 μM” value in experiment [1] worked out at 70% inhibition.

Regarding `O=C(Nc1ccc(C(F)(F)F)cc1Cl)c1ccc2ccccc2c1O` [Compound 45, N-(2-chloro-4-(trifluoromethyl)phenyl)-1-hydroxy-2-naphthamide], the “Inhibition Wnt/β-catenin transcription TopFlash, % inhibition @ 5 μM” value in experiment [1] is 60% inhibition.

Take `O=C(Nc1ccc(C(F)(F)F)cc1Cl)c1c(O)ccc2ccccc12` [Compound 43, N-(2-chloro-4-(trifluoromethyl)phenyl)-2-hydroxy-1-naphthamide]: in experiment [1], the “Inhibition Wnt/β-catenin transcription TopFlash, % inhibition @ 5 μM” value came out at 50% inhibition.

On to `O=C(Nc1ccc(C(F)(F)F)cc1Br)c1cc(Cl)ccc1O` [Compound 28, N-(2-bromo-4-(trifluoromethyl)phenyl)-5-chloro-2-hydroxybenzamide], for which, in experiment [1] (1 μM), the “Inhibition Wnt/β-catenin transcription TopFlash, % inhibition @ 1 μM” value came out at 82% inhibition.

`O=C(Nc1ccc([N+](=O)[O-])c(F)c1)c1cc(Cl)ccc1O` [Compound 32, 5-chloro-N-(3-fluoro-4-nitrophenyl)-2-hydroxybenzamide]: in experiment [1] (Homo sapiens, HEK293, 8 h), 10 µM produced 90% inhibition.

Take `CCCCCCCC/C=C\CCCCCCCC(=O)Oc1ccc(Cl)cc1C(=O)Nc1ccc([N+](=O)[O-])cc1Cl` [Compound 68, 4-chloro-2-((2-chloro-4-nitrophenyl)carbamoyl)phenyl oleate]: at 2 µM the inhibition in experiment [1] (Homo sapiens, HEK293, 8 h) was 60%.

Turning to `O=C(Nc1ccc([N+](=O)[O-])cc1Cl)c1cc(-c2ccc(F)cc2F)ccc1O` [Compound 42, N-(2-chloro-4-nitrophenyl)-2′,4′-difluoro-4-hydroxy-[1,1′-biphenyl]-3-carboxamide], the inhibition at 2 µM in experiment [1] (Homo sapiens, HEK293, 8 h) came to 90%.

For the origin of these results see patent US10905665B2, “Chemical modulators of signaling pathways and therapeutic use” (Duke University, priority 2015, dated 2021).
